Experimental data published in US20240327364A1, “THERAPEUTIC TARGETING OF GPR68 TO INDUCE FERROPTOSIS” (University Of Maryland, Baltimore, priority 2023, published 2024).
Like-named read-outs stand apart in the source and are kept apart here.

How the values were obtained:
ITK = biological target: T1, ITK (Homo sapiens, UniProt Q08881); experiment: KinomeScan; type: binding; conditions: read-out: % Control
T1 construct: purchased DiscoveRx (Fremont, CA)

MST4 = biological target: T2, MST4 (Homo sapiens, UniProt Q9P289); experiment: KinomeScan; type: binding; conditions: read-out: % Control
T2 construct: purchased DiscoveRx

BLK = biological target: T3, BLK (Homo sapiens, UniProt P51451); experiment: KinomeScan; type: binding; conditions: read-out: % Control
T3 construct: purchased DiscoveRx (Fremont, CA)

RIPK2 = biological target: T4, RIPK2 (Homo sapiens, UniProt O43353); experiment: KinomeScan; type: binding; conditions: read-out: % Control
T4 construct: purchased DiscoveRx (Fremont, CA)

MAP4K3 = biological target: T5, MAP4K3 (Homo sapiens, UniProt Q8IVH8); experiment: KinomeScan; type: binding; conditions: read-out: % Control
T5 construct: purchased DiscoveRx (Fremont, CA)

GnRH = biological target: T6, GnRH (Homo sapiens, UniProt P30968); experiment: GPCR Profiler; type: cell-based
T6 construct: host or cells: Chem-1 cells expressing Gα15

ADRB3 = biological target: T7, ADRB3 (Homo sapiens, UniProt P13945); experiment: GPCR Profiler; type: cell-based; conditions: 12.5 uM
T7 construct: host or cells: Chem-1 cells with promiscuous Gα15

zebrafish embryo = experiment: Zebrafish embryo phenotype; type: in vivo; conditions: 10 uM
Procedure: A chemical screen for small molecules that perturb embryonic development (dorsoventral axis) in zebrafish was performed as previously described (see Chen et al., 2009; Hao et al., 2013; Williams et al., 2015; Yu et al., 2008)). Briefly, pairs of WT zebrafish were mated, and fertilized eggs were arrayed in 96-well microtiter plates (5 embryos/well) containing […] E3 water. At 4 hours post fertilization (pf), a small molecule library from Vanderbilt High Throughput Screening Facility was added to each well to a final concentration of 10 μM. Embryos were incubated at 28.5 C until 24 and 48 hours pf, when they were examined for gross morphologic changes indicative of reproducible embryonic defects (dorsalization of the embryonic axis). A total of 30,000 compounds were screened. To discover novel small molecule modulators of embryonic development an unbiased screen of ˜30,000 small molecules was conducted, in which the compounds were assayed for their ability to induce phenotypic changes in the morphology of zebrafish. Further information on these assays can be found in Hao et al., 2013 and Williams et al., 2015. […] This compound was identified based on the phenotype of aberrant pigmentation. Compare FIG. 2B and FIG. 2C, which show a dorsal view of a representative DMSO vehicle control-treated zebrafish embryo at 48 hours pf and a dorsal view of a representative OGM1 (10 uM)-treated zebrafish embryo at 48 hours pf. […] Since GPCRs represent >30% of targets for FDA-approved small molecules and are known to modulate cell migration, activity against 158 GPCRs was assessed based on their chemical structures. GPCRs (158) were tested for agonist and antagonist activity at 10 μM. […] Chemical segregation analysis of zebrafish phenotype was conducted to further identify the inhibitory activity responsible for the zebrafish phenotype. […] The identities of the R groups in Formula A are shown below in Table 5.

TLK2 = biological target: T8, TLK2 (Homo sapiens, UniProt Q86UE8); experiment: KinomeScan; type: binding; conditions: read-out: % Control
T8 construct: purchased DiscoveRx (Fremont, CA)

PIK3CA(C420R) = biological target: T9, PIK3CA(C420R) (Homo sapiens, UniProt P42336, C420R); experiment: KinomeScan; type: binding; conditions: read-out: % Control
T9 construct: purchased DiscoveRx (Fremont, CA)

TNK1 = biological target: T10, TNK1 (Homo sapiens, UniProt Q13470); experiment: KinomeScan; type: binding; conditions: read-out: % Control
T10 construct: purchased DiscoveRx (Fremont, CA)

BDKR2 = biological target: T11, BDKR2 (Homo sapiens, UniProt P30411); experiment: GPCR Profiler; type: cell-based
T11 construct: host or cells: Chem-1 cells with promiscuous Gα15

PAF = biological target: T12, PAF (Homo sapiens, UniProt P25105); experiment: GPCR Profiler; type: cell-based
T12 construct: host or cells: Chem-1 cells with Gα15

CDKL5 = CDKL5 (Homo sapiens, UniProt O76039); experiment: KinomeScan; type: binding; conditions: read-out: % Control
HeLa = experiment: Cell Titer-Glo viability, Cervical cancer; type: cell-based
Procedure: OGM2 kills wide variety of cancer cell types. Cell sensitivity can be classified in to Very Sensitive (LC50<2 μM), Sensitive (LC50=2 to 10 μM), Mildly Sensitive (LC50>10 μM), and Refractory (no killing at 10 μM). The listed established cell were incubated with OGM2 at 2 μM or 10 μM for 72 hours under standard cell culture conditions, and relative cell number was assessed using Cell Titer-Glo Luminescent Cell Viability Assay (Promega™) following the manufacturer's instructions. Luminescence was determined using a Cytation 5 reader and Gen5 software package (BioTek™).
Cancer cells, which are very sensitive to killing by OGM2 (LCs <2 μM), with reported mRNA expression of GPR68 and the related proton sensing receptor GPR4. LC50's (concentrations causing 50% lethality) were determined using CellTiter-Glo (Promega™, G7570). Cells were plated in 12-well plates (CELLTREAT Scientific Products, 229112) in 1 ml of DMEM with high glucose, GlutaMAX, HEPES, or RPMI 1640 with Penicillin-Streptomycin (ThermoFisher™, 10564029, 11875119 and 15140122) and 10% FBS. Cells were incubated overnight at 37° C. in 5% CO2. Then 1 mL of fresh media was added with DMSO, OGM, or positive control (Erastin; APExBIO Technology, LLC, B1524) and cells incubated for 3 days. On the third day, all media was removed, cells were rinsed with 1×PBS, PBS was removed, and 200 μL of 1× Passive Lysis Buffer (Promega™, E1941) was added to each well. […]. Subsequently, 20 μL of lysate was added to 100 μL CellTiter-Glo™ reagent on a LUMITRAC 200 plate (Greiner™ bio-one, 82050-726). Plates were briefly spun down and read on a GloMax-Multi Detection System (Promega™).
The cells listed in the tables above were incubated with OGM2 at 2 μM or 10 μM for 72 hours under standard cell culture conditions, and relative cell number was assessed using Cell Titer-Glo Luminescent Cell Viability Assay (Promega™) following the manufacturer's instructions. Luminescence was determined using a Cytation 5 reader and Gen5 software package (BioTek™). RNA expression of GPR68 and GPR4 in the corresponding cancer cell lines are listed, according to the publicly available The Human Protein Atlas version 22.0 and Ensembl version 103.38 (see proteinatlas.org). The consensus normalized expression value (“nTPM”=normalize transcript per million) was calculated as the maximum nTPM value for each gene in the two data sources.

T11 sequence (P30411 whole entry): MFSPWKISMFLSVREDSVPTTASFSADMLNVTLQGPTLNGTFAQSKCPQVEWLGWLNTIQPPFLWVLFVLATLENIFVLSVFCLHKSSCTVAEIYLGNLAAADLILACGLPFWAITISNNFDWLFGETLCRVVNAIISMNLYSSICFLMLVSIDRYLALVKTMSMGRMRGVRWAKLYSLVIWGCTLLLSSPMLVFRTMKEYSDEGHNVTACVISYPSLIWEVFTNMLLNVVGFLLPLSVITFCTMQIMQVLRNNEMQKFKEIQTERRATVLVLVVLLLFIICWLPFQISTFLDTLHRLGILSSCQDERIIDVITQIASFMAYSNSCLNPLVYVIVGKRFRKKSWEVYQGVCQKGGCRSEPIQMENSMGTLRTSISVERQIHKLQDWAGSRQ
T12 sequence (P25105 whole entry): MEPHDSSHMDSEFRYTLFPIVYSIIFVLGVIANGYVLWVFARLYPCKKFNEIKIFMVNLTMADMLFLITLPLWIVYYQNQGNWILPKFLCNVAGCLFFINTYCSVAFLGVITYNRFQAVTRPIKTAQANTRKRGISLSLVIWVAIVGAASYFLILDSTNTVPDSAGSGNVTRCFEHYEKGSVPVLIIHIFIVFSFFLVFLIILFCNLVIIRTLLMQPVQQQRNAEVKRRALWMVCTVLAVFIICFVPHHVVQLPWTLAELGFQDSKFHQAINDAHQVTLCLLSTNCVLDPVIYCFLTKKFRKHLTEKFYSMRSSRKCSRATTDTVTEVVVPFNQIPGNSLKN
T6 sequence (P30968 whole entry): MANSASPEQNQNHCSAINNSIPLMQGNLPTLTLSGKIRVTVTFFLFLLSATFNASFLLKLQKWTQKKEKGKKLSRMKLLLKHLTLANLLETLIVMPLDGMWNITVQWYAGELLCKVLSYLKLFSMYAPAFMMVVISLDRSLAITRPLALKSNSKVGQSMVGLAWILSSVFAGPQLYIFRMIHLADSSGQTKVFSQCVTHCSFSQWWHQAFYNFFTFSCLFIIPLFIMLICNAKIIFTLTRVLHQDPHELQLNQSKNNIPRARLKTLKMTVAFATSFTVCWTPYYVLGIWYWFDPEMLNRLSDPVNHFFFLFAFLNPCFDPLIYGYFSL
T10 sequence (Q13470 whole entry): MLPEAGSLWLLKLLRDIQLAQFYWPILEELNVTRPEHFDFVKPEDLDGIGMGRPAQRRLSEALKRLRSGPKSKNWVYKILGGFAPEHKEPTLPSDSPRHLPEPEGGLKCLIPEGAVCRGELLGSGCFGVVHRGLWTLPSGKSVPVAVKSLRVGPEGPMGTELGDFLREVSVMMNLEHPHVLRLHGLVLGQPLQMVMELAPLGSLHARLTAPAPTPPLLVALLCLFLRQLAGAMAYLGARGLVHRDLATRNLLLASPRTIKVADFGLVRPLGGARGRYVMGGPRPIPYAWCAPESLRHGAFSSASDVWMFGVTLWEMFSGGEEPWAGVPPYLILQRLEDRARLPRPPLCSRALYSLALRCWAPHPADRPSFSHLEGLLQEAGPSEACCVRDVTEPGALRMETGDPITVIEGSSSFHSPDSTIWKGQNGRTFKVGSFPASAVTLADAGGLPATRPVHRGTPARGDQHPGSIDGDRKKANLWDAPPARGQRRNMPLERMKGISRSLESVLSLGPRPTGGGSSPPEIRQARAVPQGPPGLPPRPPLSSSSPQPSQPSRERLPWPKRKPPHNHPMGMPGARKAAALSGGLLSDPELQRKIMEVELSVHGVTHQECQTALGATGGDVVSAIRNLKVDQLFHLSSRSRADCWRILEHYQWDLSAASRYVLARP
T3 sequence (P51451 whole entry): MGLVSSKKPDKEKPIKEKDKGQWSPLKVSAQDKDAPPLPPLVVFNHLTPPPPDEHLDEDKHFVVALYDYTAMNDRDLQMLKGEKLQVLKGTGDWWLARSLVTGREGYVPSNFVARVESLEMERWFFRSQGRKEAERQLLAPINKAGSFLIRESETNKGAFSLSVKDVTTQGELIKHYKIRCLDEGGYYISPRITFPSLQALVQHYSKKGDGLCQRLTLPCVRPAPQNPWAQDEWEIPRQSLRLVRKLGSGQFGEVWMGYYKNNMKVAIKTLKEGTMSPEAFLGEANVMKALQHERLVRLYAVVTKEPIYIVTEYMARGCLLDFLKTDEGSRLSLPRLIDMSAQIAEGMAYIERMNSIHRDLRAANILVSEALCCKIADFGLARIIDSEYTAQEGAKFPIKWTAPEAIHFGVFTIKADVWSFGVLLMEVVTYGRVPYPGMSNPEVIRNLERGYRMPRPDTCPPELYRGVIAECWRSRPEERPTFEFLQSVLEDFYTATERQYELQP
T5 sequence (Q8IVH8 whole entry): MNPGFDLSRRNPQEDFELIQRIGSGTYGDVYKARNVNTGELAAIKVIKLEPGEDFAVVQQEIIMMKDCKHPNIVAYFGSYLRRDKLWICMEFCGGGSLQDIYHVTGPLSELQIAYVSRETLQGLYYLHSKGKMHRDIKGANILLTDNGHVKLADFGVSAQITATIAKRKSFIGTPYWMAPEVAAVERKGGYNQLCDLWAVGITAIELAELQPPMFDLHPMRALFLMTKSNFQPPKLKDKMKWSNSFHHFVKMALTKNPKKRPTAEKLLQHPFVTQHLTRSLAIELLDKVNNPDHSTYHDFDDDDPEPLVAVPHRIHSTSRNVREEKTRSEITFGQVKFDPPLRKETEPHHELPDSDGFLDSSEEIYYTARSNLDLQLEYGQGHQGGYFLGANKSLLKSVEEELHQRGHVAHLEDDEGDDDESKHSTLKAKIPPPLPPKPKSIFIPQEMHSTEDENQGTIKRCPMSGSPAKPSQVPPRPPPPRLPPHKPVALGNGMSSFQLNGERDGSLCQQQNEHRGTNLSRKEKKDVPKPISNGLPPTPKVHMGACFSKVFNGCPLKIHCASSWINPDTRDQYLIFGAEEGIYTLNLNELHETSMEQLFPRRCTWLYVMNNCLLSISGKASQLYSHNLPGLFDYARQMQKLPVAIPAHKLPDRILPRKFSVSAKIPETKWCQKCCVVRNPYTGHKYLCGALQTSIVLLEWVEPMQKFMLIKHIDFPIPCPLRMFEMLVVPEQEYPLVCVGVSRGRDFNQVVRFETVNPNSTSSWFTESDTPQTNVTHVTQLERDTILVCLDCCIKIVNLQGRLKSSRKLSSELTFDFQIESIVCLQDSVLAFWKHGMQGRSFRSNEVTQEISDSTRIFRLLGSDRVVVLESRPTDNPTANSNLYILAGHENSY
T1 sequence (Q08881 whole entry): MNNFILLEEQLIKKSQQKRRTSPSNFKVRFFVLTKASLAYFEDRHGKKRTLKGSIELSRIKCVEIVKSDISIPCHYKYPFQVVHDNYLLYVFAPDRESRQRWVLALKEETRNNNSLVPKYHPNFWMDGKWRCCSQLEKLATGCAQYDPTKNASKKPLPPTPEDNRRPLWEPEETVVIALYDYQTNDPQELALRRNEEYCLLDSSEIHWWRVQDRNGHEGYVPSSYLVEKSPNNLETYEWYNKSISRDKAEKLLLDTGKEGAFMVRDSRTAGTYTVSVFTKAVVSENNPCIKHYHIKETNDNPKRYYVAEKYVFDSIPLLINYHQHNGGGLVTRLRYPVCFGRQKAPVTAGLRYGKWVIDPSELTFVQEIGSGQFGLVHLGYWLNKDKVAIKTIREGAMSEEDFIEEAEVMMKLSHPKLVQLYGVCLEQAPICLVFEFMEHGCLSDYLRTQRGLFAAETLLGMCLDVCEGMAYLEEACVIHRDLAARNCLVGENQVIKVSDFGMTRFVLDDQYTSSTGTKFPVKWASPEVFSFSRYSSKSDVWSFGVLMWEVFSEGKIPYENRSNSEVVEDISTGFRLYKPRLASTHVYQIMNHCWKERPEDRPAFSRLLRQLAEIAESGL
T9 sequence (P42336 whole entry C420R): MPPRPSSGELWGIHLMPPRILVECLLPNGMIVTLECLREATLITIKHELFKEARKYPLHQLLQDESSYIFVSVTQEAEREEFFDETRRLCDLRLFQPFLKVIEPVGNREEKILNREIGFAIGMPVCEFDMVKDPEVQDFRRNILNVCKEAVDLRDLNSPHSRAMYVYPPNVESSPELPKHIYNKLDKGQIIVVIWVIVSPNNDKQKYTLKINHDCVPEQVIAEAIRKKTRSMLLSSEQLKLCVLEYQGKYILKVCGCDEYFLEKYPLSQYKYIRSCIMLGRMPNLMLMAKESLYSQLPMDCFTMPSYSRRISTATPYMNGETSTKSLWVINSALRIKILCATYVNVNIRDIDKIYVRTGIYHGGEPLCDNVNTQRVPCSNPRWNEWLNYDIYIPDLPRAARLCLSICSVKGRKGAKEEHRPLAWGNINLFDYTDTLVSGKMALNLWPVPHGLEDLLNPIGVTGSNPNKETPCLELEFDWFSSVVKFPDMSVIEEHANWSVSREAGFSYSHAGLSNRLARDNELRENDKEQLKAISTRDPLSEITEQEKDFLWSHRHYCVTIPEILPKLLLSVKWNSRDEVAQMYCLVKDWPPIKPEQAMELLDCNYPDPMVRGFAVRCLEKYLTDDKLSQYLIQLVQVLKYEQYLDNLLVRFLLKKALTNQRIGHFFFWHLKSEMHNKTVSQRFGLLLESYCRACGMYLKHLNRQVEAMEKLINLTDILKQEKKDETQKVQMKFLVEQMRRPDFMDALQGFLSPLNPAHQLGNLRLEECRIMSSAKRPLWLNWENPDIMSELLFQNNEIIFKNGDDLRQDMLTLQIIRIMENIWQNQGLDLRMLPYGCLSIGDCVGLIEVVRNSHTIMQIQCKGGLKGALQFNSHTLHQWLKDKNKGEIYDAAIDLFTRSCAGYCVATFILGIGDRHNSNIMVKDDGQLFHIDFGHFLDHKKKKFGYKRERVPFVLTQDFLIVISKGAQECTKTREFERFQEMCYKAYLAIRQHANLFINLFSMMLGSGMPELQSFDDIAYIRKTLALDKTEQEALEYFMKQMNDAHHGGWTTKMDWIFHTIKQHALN

CCc1ccc2c(c1)C1(NN=C(c3cccc4ccccc34)S1)C(=O)N2 (stereo not shown) [OGM1, 5-ethyl-5′-naphthalen-1-ylspiro[1H-indole-3,2′-3H-1,3,4-thiadiazole]-2-one]
remaining binding at 10 µM (ITK): 100%
remaining binding at 10 µM (MST4): 81%
remaining binding at 10 µM (BLK): 97%
remaining binding at 10 µM (RIPK2): 100%
remaining binding at 10 µM (MAP4K3): 100%
Antagonism (GnRH; 10 uM): −2.6
Agonism (GnRH; 12.5 uM): 0.5
Agonism (ADRB3): −0.2
phenotypes induced (zebrafish embryo): reproducibly induced ventral curvature, wavy notochord, shortened body axis, craniofacial defects, and loss of retinal iridophores
remaining binding at 10 µM (TLK2): 71%
remaining binding at 10 µM (PIK3CA(C420R)): 100%
remaining binding at 10 µM (TNK1): 100%
Antagonism (BDKR2; 10 uM): 3.4
Agonism (BDKR2; 12.5 uM): −2.4
Antagonism (PAF; 10 uM): 6.6
Agonism (PAF; 12.5 uM): 0.4
remaining binding at 10 µM (CDKL5): 85%

CCc1ccc2c(c1)C1(NN=C(c3ccccc3)S1)C(=O)N2 (stereo not shown) [OGM2]
Class (HeLa): Mildly
% Survival 2 μM OGM (HeLa; 72 hours): 91.5%
% Survival 10 μM OGM (HeLa; 72 hours): 68.0%
CC50 (HeLa; Homo sapiens, HeLa, 72 hours, read-out: LC50 (the source's name)): > 10 µM
Class (HeLa; Table 13): Low
